Earlier results on 7 molecules are cited in US8470377B2, “Composition and method for reducing food intake” (Natures Remedies Ltd., priority 2009, dated 2013).

The conditions of data set [1]: for food intake and appetite ratings: literature studies.
The test system of a further data set is GLP-1. The conditions noted are these: approximately 20 g per day for 7 days, human volunteers.

On to pectin, for which the “food intake and appetite ratings” value in data set [1] is recorded as “not significantly reduced”.
As to beta-glucan, the “food intake and appetite ratings” value in data set [1] was “not significantly reduced”.
On to methylcellulose, for which the “food intake and appetite ratings” value in data set [1] is “not significantly reduced”.
On to `O=C(O)CC(O)(C(=O)O)C(O)C(=O)O` (centres unmarked) [HCA-SX, hydroxycitric acid], for which the “decrease in food intake” value in data set [1] (human studies) was 4%.
Consider fructooligosaccharides, for which the “food intake and appetite ratings” value in data set [1] was “not significantly reduced”.
Regarding sodium alginate, the “reduction in energy intake” value in data set [1] (human studies) is reported as 7%.
Turning to oligofructose, the “reduction in total intake” value in data set [1] (human studies) was 5%. In the data set on GLP-1, the “serum GLP-1 levels” value is listed as “increased”.
